From US9334280B2, “Synthetic rigidin analogues as anticancer agents, salts, solvates and prodrugs thereof, and method of producing same” (New Mexico Technical Research Foundation, priority 2012, dated 2016)
Read-outs that look alike come from different tables or passages of the source.

Tests used:
HeLa cells = assay: Flow cytometric cell cycle analysis (Vybrant Orange); format: cell-based, human; conditions: 0.1 μM, 24 h
Procedure: To assess the effects of the analogues on the cell cycle, cell cycle analysis was performed. 70-80% confluent HeLa cells were trypsinized and seeded at an initial density of 2×10^5 cell per well into 6 well plates in DMEM supplemented with 10% FBS, 100 mg/L penicillin G and 100 mg/L streptomycin. The cells were allowed to adhere overnight and before treatment with compounds of Formula I at concentrations ranging from 0.1 to 10 microM. After 24 hrs, the cells were washed 3× with DMEM, trypsinized, pelleted, and re-suspended in 200 microL of culture medium containing 10 microM (2 microL/mL) vybrant orange dye. The samples in the labeling solution were transferred into Falcon tubes and incubated in a water bath for 30 mins at 37° C. The samples were then analyzed using a Becton Dickinson FACscan flow cytometer with CellQuest software. A 488 nm laser was utilized using parameters that can be found in Appendix B; 10,000 events were collected for analysis. Cells treated with 0.1% DMSO were used as a negative control and cells treated with colchicine were used as a positive control.
In further anticancer evaluation of compounds of Formula I cell cycle analysis was performed using the cell permeable DNA binding dye Vybrant Orange. In a normal population, cells are distributed among the three major phases of the cell cycle, G0/G1 in which there is one set of paired chromosomes per cell (2n), followed by the S or synthesis phase in which DNA is synthesized in preparation for division (there is a variable amount of DNA present during this phase) and finally G2/M phase in which the chromosomes of each cell have now been duplicated (4n). This DNA content can be measured using fluorescent DNA selective probes such as Vybrant Orange that produce signals that are proportional to DNA mass per cell. This dye interacts with double stranded DNA (dsDNA) in living cells and becomes fluorescent upon binding and thus can be used to track DNA content as cells progress through the various phases of the cell cycle using flow cytometry. Cell cycle analysis was performed on HeLa cells using Rig8 at various concentrations above and below the respective GI50. Since colchicine is a known antimitotic drug, it was utilized as a positive control, while HeLa cells treated with 0.1% DMSO were used as a negative control. FIG. 6 illustrates the results of this analysis using Rig 8 on HeLa cells.

HeLa and MCF-7 cells = assay: MTT antiproliferative activity, statements for HeLa and MCF-7; format: cell-based, human; conditions: HeLa and MCF-7, 48 h
Procedure: (§1) To evaluate antiproliferative properties of the compounds of Formula I, mitochondrial dehydrogenase activities were measured using the MTT assay. The cell lines were prepared by trypsinizing and seeding […] cells per well into microplates. All compounds were reconstituted in dimethyl sulfoxide (DMSO) at a concentration of either 100 mM or 25 mM prior to treatment. The cells were grown for 24 hrs before treatment at concentrations ranging from 0.004 to 100 microM and incubated for 48 hrs in 200 microL media. 20 microL of MTT reagent in serum free medium (5 mg/mL) was added to each well and incubated further for 2 hrs. Media was removed and the resulting formazan crystals were re-solubilized in 100 microL of DMSO and the optical density (OD) was measured using a Thermomax Molecular Device plate reader at a wavelength of 490 nm. The experiments were performed in quadruplicate and repeated at least twice for each compound per cell line. Cells treated with 0.1% DMSO were used as a negative control, while phenyl arsine oxide (PAO) was used as a positive killing control.
The obtained compounds were evaluated for antiproliferative activities using the HeLa cell line as a model for human cervical adenocarcinoma and MCF-7 cells as a model for breast adenocarcinoma. The cells were treated with each compound for 48 h, and cell viability was assessed using the MTT method (Table 5).
(§2) To evaluate antiproliferative properties of the synthesized compounds, the MTT assay was used. The cell lines were assessed by trypsinizing each cell line and seeding 4×10^3 cells per well into 96-well plates. All compounds were dissolved in DMSO at a concentration of either 100 mM or 50 mM prior to cell treatment. The cells were grown for 24 h and then treated with compounds at concentrations ranging from 0.04 to 100 μM and incubated for 48 h in 200 μL media. 20 μL of MTT reagent in serum free medium (5 mg/mL) was added to each well and incubated further for 2 h. Media was removed, and the resulting formazan crystals were re-solubilized in 200 μL of DMSO. A490 was measured using a Thermomax Molecular Device plate reader. The experiments were performed in quadruplicate and repeated at least twice for each compound per cell line. Cells treated with 0.1% DMSO were used as a control, and 1 μM phenyl arsine oxide (PAO) was used as a positive killing control.

[1] = tested on: HeLa cervical adenocarcinoma cells; assay: MTT antiproliferative assay, HeLa; format: cell-based; conditions: Homo sapiens, MTT, ± SD
Procedure: (§3) Human T-cell leukemia cell line Jurkat (ATCC TIB-152, E6-1 clone) was cultured in RPMI-1640 (Invitrogen) supplemented with 10% FBS (Invitrogen), 100 mg/L penicillin G, 100 mg/L streptomycin, 1.0 mM sodium pyruvate, 1.5 g/L sodium bicarbonate, and 4.5 g/L glucose (all from Sigma). Human cervical cancer cell line HeLa (ATCC S3) was cultured in DMEM (Invitrogen) supplemented with 10% FBS, 100 mg/L penicillin G, and 100 mg/L streptomycin. MCF-7 (human mammary carcinoma) cells were cultured in DMEM supplemented with 1.0 mM sodium pyruvate, 1% GlutaMax™-1 (Invitrogen), 100 μg/mL penicillin, 100 μg/mL streptomycin, and 10% FBS. Human uterine sarcoma MES-SA and MES-SA/Dx5 cells were cultured in RPMI-1640 medium supplemented with 10% FBS, 100 mg/L penicillin G and 100 mg/L streptomycin. All cells were incubated at 37° C. in a humidified atmosphere with 5% CO2. The other cell lines were maintained in a similar fashion as previously described.
as §1
(§4) Human cancer cell lines were obtained from the American Type Culture Collection (ATCC, Manassas, Va., USA), the European Collection of Cell Culture (ECACC, Salisbury, UK) and the Deutsche Sammlung von Mikroorganismen and Zellkulturen (DSMZ, Braunschweig, Germany). Human cervical adenocarcinoma HeLa cells were cultured in DMEM supplemented with 10% fetal bovine serum (FBS). Human mammary carcinoma MCF-7 cells were cultured in RPMI supplemented with 10% FBS. The U87 and U373 cells were cultured in DMEM culture medium (Lonza code 12-136F, Vervier, Belgium), while the SKMEL-28 and A549 cells were cultured in RPMI culture medium (Lonza; code 12-115F) supplemented with 10% heat-inactivated FBS (Lonza, FBS South America code DE14-801F). […] All cell lines were cultured in T25 flasks, maintained and grown at 37° C., 95% humidity, 5% CO2.
as §2

[2] = tested on: MCF-7 mammary gland adenocarcinoma cells; assay: MTT antiproliferative assay, MCF-7; format: cell-based; conditions: Homo sapiens, MCF7, 48 h, MTT, ± SD
Procedure: as §3, §1, §4, §2

[3] = tested on: A549 non-small-cell lung cancer cells; assay: MTT antiproliferative assay, A549; format: cell-based; conditions: Homo sapiens, Table 6, 48 h, ± SD, read-out: GI50 in vitro Values, A549
Procedure: as §1, §4, §2

U-87 glioblastoma cells = assay: MTT antiproliferative assay, U-87; format: cell-based; conditions: Homo sapiens, Table 6, 48 h, ± SD, read-out: GI50 in vitro Values, U-87
Procedure: as §4, §2

[4] = tested on: MES-SA/Dx5 uterine sarcoma cells (overexpress p-gp); assay: MTT antiproliferative assay, MDR MES-SA/Dx5; format: cell-based, human; conditions: MES-SA/Dx5 vs MES-SA
Procedure: as §3, §1
The cells of such tumors are referred to as multidrug resistant (MDR). Thus, we assessed the compounds of Formula I for antiproliferative activity in an MDR cancer cell line. This was done using the uterine sarcoma cells, MES-SA/Dx5, which overexpress p-gp. The parental drug-responsive MES-SA cell line was used as control.

[5] = Table 5, 48 h, read-out: cell viability GI50, HeLa
[6] = Table 5, read-out: cell viability GI50, MCF-7
[7] = Table 6, 48 h, read-out: GI50 in vitro Values, HeLa
[8] = Table 6, read-out: GI50 in vitro Values, MCF-7

## COc1cc2c(c(OC)c1OC)-c1ccc(OC)c(=O)cc1[C@@H](NC(C)=O)CC2 [Colchicine, reference compound]
HeLa cells
  % Relative DNA Content, G0/G1: 28.7 ± 1.2%
  % Relative DNA Content, G2/M: 53.6 ± 1.3%
  % Relative DNA Content, S: 15.7 ± 1.9%

## O=C(c1ccccc1)c1[nH]c2[nH]c(-c3ccccn3)nc(=O)c2c1-c1ccccc1 [Compound 5]
HeLa and MCF-7 cells
  antiproliferative activity (potency in words): double to single digit micromolar
[1]; [5]
  GI50: 2.7 ± 0.2 µM
[2]; [6]
  GI50: 2.5 ± 0.3 µM

## O=C(c1ccccc1)c1[nH]c2[nH]c(-c3ccco3)nc(=O)c2c1-c1ccccc1 [Compound 6]
HeLa and MCF-7 cells
  antiproliferative activity (potency in words): double to single digit micromolar
[1]; [5]
  GI50: 18.4 ± 1.8 µM
[2]; [6]
  GI50: 23.1 ± 0.5 µM

## CCOc1nc(=O)c2c(-c3ccccc3)c(C(=O)c3ccccc3)[nH]c2[nH]1 [Compound 8]
HeLa and MCF-7 cells
  antiproliferative activity (potency in words): double to single digit micromolar
[1]; [5]
  GI50: 11.1 ± 0.4 µM
[2]; [6]
  GI50: 10.4 ± 0.8 µM

## CC(C)c1nc(=O)c2c(-c3ccccc3)c(C(=O)c3ccccc3)[nH]c2[nH]1 [Compound 9]
HeLa and MCF-7 cells
  antiproliferative activity (potency in words): double to single digit micromolar
[1]; [5]
  GI50: 9.1 ± 0.3 µM
[2]; [6]
  GI50: 8.3 ± 0.8 µM

## Cc1nc(=O)c2c(-c3ccccc3)c(C(=O)c3ccccc3)[nH]c2[nH]1 [Compound 13, 6-Benzoyl-2-methyl-5-phenyl-1H-pyrrolo[2,3-d]pyrimidin-4(7H)-one]
HeLa and MCF-7 cells
  antiproliferative activity (potency in words): nanomolar
[1]; [5]
  GI50: 0.029 ± 0.001 µM
[1]; [7]
  GI50: 0.029 ± 0.001 µM
[3]
  GI50: 0.25 ± 0.01 µM
[2]; [6]
  GI50: 0.035 ± 0.003 µM
[2]; [8]
  GI50: 0.035 ± 0.003 µM
U-87 glioblastoma cells
  GI50: 0.077 ± 0.002 µM

## C#CCCCc1nc(=O)c2c(-c3ccccc3)c(C(=O)c3ccccc3)[nH]c2[nH]1 [Compound 17, 6-Benzoyl-2-(pent-4-ynyl)-5-phenyl-1H-pyrrolo[2,3-d]pyrimidin-4(7H)-one]
HeLa and MCF-7 cells
  antiproliferative activity (potency in words): nanomolar
[2]; [6]
  GI50: 0.045 ± 0.001 µM

## Cc1nc(=O)c2c(-c3cccc(Cl)c3)c(C(=O)c3ccccc3)[nH]c2[nH]1 [Compound 18, 6-Benzoyl-5-(3-chlorophenyl)-2-methyl-1H-pyrrolo[2,3-d]pyrimidin-4(7H)-one]
[1]; [7]
  GI50: 0.27 ± 0.01 µM
[3]
  GI50: 0.6 ± 0.23 µM
[2]; [8]
  GI50: 0.23 µM
U-87 glioblastoma cells
  GI50: 0.9 ± 0.16 µM

## Cc1nc(=O)c2c(-c3cccc(Br)c3)c(C(=O)c3ccccc3)[nH]c2[nH]1 [Compound 19, 6-Benzoyl-5-(3-bromophenyl)-2-methyl-1H-pyrrolo[2,3-d]pyrimidin-4(7H)-one]
[1]; [7]
  GI50: 0.29 ± 0.01 µM
[3]
  GI50: 0.65 ± 0.19 µM
[2]; [8]
  GI50: 0.27 ± 0.03 µM
U-87 glioblastoma cells
  GI50: 0.94 ± 0.12 µM

## Cc1nc(=O)c2c(-c3cccc(F)c3)c(C(=O)c3ccccc3)[nH]c2[nH]1 [Compound 20, 6-Benzoyl-5-(3-fluorophenyl)-2-methyl-1H-pyrrolo[2,3-d]pyrimidin-4(7H)-one]
[1]; [7]
  GI50: 0.29 ± 0.03 µM
[3]
  GI50: 1 ± 0.9 µM
[2]; [8]
  GI50: 0.36 ± 0.02 µM
U-87 glioblastoma cells
  GI50: 1.7 ± 0.1 µM

## Cc1nc(=O)c2c(-c3cc(Br)cc(Br)c3)c(C(=O)c3ccccc3)[nH]c2[nH]1 [Compound 23, 6-Benzoyl-5-(3,5-dibromophenyl)-2-methyl-1H-pyrrolo[2,3-d]pyrimidin-4(7H)-one]
[1]; [7]
  GI50: 0.29 ± 0.01 µM
[3]
  GI50: 0.38 ± 0.08 µM
[2]; [8]
  GI50: 0.27 ± 0.01 µM
U-87 glioblastoma cells
  GI50: 0.72 ± 0.06 µM

## CC(=O)O[C@H]1C(=O)[C@@]2(C)[C@H]([C@H](OC(=O)c3ccccc3)[C@]3(O)C[C@H](OC(=O)[C@H](O)[C@@H](NC(=O)c4ccccc4)c4ccccc4)C(C)=C1C3(C)C)[C@]1(OC(C)=O)CO[C@@H]1C[C@@H]2O [Taxol, reference compound]
[4]
  times less potent against the MDR cells compared with the parental MES-SA cells: ca. 1000 times

## CC[C@]1(O)C[C@@H]2CN(CCc3c([nH]c4ccccc34)[C@@](C(=O)OC)(c3cc4c(cc3OC)N(C)[C@H]3[C@@](O)(C(=O)OC)[C@H](OC(C)=O)[C@]5(CC)C=CCN6CC[C@]43[C@@H]65)C2)C1 [Vinblastine, reference compound]
[4]
  times less potent against the MDR cells compared with the parental MES-SA cells: ca. 1000 times
